Drawing on patent publication US20230072523A1, “PROCESS AND SYSTEM FOR ACELLULAR THERAPY” (Orgenesis Inc., priority 2020, published 2023), this text covers viability for one molecule.

In general, viability refers to the share of living cells, or the viability signal relative to a control. A low value points to a greater loss of cells.

This data set in a line: acetaminophen cytotoxicity, cell viability by XTT assay. As to conditions: 48 hrs incubation, control 100%; for viability at 48 h, 5 mM: acetaminophen 5 mM. Type of data set: cell-based. The text has this: In the current example, cytotoxicity-induced paracrine EVs were replaced by current existing extracorporeal regimen, in addition to replace depleted body fluids with protective EVs fused during hemodialysis. EV mimetics—Bioxomes or chelator-containing EV mimetics, named Redoxomes as described by us recently in PCT publication no. PCT/IL2019/050391 (incorporated herein by reference) were used. Selected chelator, DSFX—deferoxamine embedded in Redoxomes can be fused with EVs or body fluids, or cells to protect from cytotoxicity damage, prevent liver and kidney failure and mortality, morbidity rate. To establish growth conditions sensitive to proliferation inhibition cytoparameters, calibration of dynamic cell growth parameters was performed by calibration of cell number in CellTiter-Glo Assay (Promega) shown on tables 3 and 4 below in relative units.
Specific protective anti-cytotoxicity example tested on calibrated above assays of EV mimetic proprietary Bioxome, is shown in table below. Cell viability, %, measured by XTT assay (Biological Industries Beit Haemek). Cell viability without treatment was calibrated by dose dependence to serum conditions and cell density. Cell seeding established for 10000, 20000 cells/well in 96 well plates. For RCB001 cells (liver derived mesenchymal like cells)—10,000 cells. For −HepG2 cells—20,000 cells density used. Cells were grown in DMEM plus 10% exosome depleted FBS (ThermoFisher Scientific).
(In general: Tetrazolium assays rely on reduction of a dye to a coloured formazan, in cell work by metabolically active cells.)

Consider `CC(=O)Nc1ccc(O)cc1` [Acetaminophen], for which the viability at 48 h, 5 mM is 57 to 81% (RCB001 cells (liver derived mesenchymal like cells)) and 62% (human, HepG2 cells). For the same molecule, for the setting “RCB001 cells (liver derived mesenchymal like cells), acetaminophen”, the viability at 48 h, 10 mN came to 46%. The molecule further came in with a viability at 48 h, 10 mM (human, HepG2 cells, acetaminophen 10 mM) of 46%.
